Literature values, collected in patent US20160032347A1, “NOVEL METHOD AND DEVICE FOR WHOLE-CELL BACTERIAL BIO-CAPACITOR CHIP FOR DETECTING CELLULAR STRESS INDUCED BY TOXIC CHEMICALS” (Sabanci Universitesi, priority 2011, published 2016).

System: E. coli
Settings: previous studies; ~6.5%

[Cl-].[Na+] [NaCl, sodium chloride]
salt tolerance level reported for E. coli: up to 1.1 M
